The results in this text go back to patent publication US7875607B2, “7,8-bicycloakyl-chroman derivatives” (Ampere Life Sciences, Inc., priority 2004, dated 2011).

Bounds are passed on as bounds.

The test system of experiment [1] is LTB4 release from MPRO cell line. The experiment in a line: LTB4-cell assay. The class given is cell-based. The conditions noted are these: Mus musculus; differentiated MPRO cells, 1 μM A23187, 1 hour; read-out: EC50, inhibition of LTB4. The method in brief:
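Mouse MPRO cells differentiated 72 hours with 10 μM all-trans retinoic acid, then stimulated 1 hour at 37° C with 1 μM A23187 plus compound (5 concentrations from 10 μM, quadruplicate). Supernatant LTB4 measured by competitive EIA; unstimulated cells as negative control.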

Experiment [2] has as its system LTB4 production in heparinized whole blood. As to the kind of experiment: Inhibition of LTB4 production in blood. It is filed as cell-based, rat or mouse. The conditions noted are these: 20 μM A23187, read-out: EC50, protection against LTB4. Put shortly:
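Heparinized rat or mouse whole blood preincubated with test agent 10 min at 37°C, then stimulated with calcium ionophore A23187 (20 μM final) for 30 min. Plasma methanol-precipitated and LTB4 measured by EIA; percent inhibition versus vehicle used to derive IC50.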

Experiment [3] addresses T1, porcine leukocyte 12/15-lipoxygenase (Sus scrofa, UniProt P16469).
T1 sequence (P16469 1-663): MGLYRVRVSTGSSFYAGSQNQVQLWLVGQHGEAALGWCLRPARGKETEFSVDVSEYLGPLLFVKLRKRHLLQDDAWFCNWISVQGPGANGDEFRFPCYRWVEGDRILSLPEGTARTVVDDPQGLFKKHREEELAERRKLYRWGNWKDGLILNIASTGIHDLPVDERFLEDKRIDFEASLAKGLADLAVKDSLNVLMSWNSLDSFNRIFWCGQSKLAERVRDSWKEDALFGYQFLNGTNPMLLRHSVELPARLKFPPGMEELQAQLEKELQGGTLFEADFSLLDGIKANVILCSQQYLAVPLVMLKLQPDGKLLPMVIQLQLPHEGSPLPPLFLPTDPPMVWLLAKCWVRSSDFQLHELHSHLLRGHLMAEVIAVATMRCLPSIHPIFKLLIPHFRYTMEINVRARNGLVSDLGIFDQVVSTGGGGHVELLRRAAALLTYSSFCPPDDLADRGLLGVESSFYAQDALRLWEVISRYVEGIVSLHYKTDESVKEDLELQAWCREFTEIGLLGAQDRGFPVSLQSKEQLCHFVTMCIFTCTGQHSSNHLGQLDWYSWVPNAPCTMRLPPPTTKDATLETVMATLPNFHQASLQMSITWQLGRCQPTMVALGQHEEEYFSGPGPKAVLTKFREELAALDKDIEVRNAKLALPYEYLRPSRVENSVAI
The experiment in a line: 12/15-Lipoxygenase enzyme assay. The class given is biochemical. The conditions noted are these: 70 μM arachidonic acid, pH 7.4; read-out: IC50, inhibition of 12/15-Lipoxygenase. On the procedure:
This procedure was used for measuring the enzymatic activity of porcine leukocyte 12/15-lipoxygenase using a calorimetric method based on the ferric oxidation of xylenol orange.
Porcine Leukocyte 12/15-lipoxygenase (Cayman Cat # 60300) was used in this assay. Test compound and/or vehicle was added to 1.3U 12/15-lipoxygenase in 50 mM Tris-HCl buffer, pH 7.4. The reaction was initiated by addition of 70 μM arachidonic acid in Tris-HCl buffer, pH 7.4, and terminated after a 10 minute incubation at room temperature by addition of FOX reagent (25 mM sulphuric acid, 100 μM xylenol orange, 100 μM iron (II) sulphate, methanol:water 9:1). The yellow color of acidified xylenol orange was converted to a blue color by the lipid hydroperoxide-mediated oxidation of Fe^2+ ions and the interaction of the resulting Fe^3+ ions with the dye. The complex was allowed to form during a 1 hour incubation at room temperature with shaking. Absorbance of the Fe^3+ complex was then measured at […] using a spectrophotometer.
Negative controls contained enzyme during the incubation step but substrate was not added until after the FOX reagent.
Compounds are screened at 5 concentrations in triplicate starting at 10 μM

Consider `CC(C)CSCCCC1(C)CCc2cc(O)c3c(c2O1)C1CCC3C1` (stereo not shown) [2-(3-isobutylsulfanyl-propyl)-2-methyl-3,4,7,8,9,10-hexahydro-7,10-methano-2H-benzo[h]chromen-6-ol], for which the values for the concentration for a half-maximal effect (EC50) in experiment [1] and in experiment [2] were not above 5 µM and not above 10 µM, respectively. The IC50 in experiment [3] is not above 10 µM.

On to `CC1(C)CCc2cc(O)c3c(c2O1)C1CCC3CC1` [2,2-Dimethyl-3,4,7,8,9,10-hexahydro-7,10-ethano-2H-benzo[h]chromen-6-ol], for which the figures for the EC50 in experiment [1] and in experiment [2] were not above 5 µM and not above 10 µM, respectively. Further, the IC50 in experiment [3] is not above 10 µM.

Consider `CC1(CCCCl)CCc2cc(O)c3c(c2O1)C1CCC3C1` (stereo not shown) [2-(3-Chloro-propyl)-2-methyl-3,4,7,8,9,10-hexahydro-7,10-methano-2H-benzo[h]chromen-6-ol], for which the concentration giving a half-maximal response (EC50) is not above 5 µM in experiment [1] and not above 10 µM in experiment [2].

For the compound `CC1(CCCSc2nccs2)CCc2cc(O)c3c(c2O1)C1CCC3C1` (stereo not shown) [2-Methyl-2-[3-(thiazol-2-ylsulfanyl)-propyl]-3,4,7,8,9,10-hexahydro-7,10-methano-2H-benzo[h]chromen-6-ol], the EC50 in experiment [1] was not above 5 µM; in experiment [2], not above 10 µM. Also, in experiment [3], the IC50 is not above 10 µM.

In the case of `CC1(C)C=Cc2cc(O)c3c(c2O1)C1CCC3CC1` [2,2-Dimethyl-7,8,9,10-tetrahydro-7,10-ethano-2H-benzo[h]chromen-6-ol], the EC50 in experiment [1] is not above 5 µM. Besides, the IC50 in experiment [3] was not above 10 µM.
